According to publication PMC8507260, “A2E-induced inflammation and angiogenesis in RPE cells in vitro are modulated by PPAR-α, -β/δ, -γ, and RXR antagonists and by norbixin” (Aging (Albany NY), 2021):

What was measured:
RXR = test: Endogenous RXR transactivation, luciferase reporter in porcine RPE cells; assay type: cell-based
Procedure: (§1) Pig eyes were obtained from a local slaughterhouse and transported to the laboratory in ice-cold Ringer solution. After removal of the anterior segment of the eye, the vitreous and neural retina was separated from the RPE and removed. The eyecup was washed twice with phosphate buffer saline (PBS), filled with trypsin (0.25% in PBS) and incubated at 37°C for 1.5 h. RPE cells were harvested by gently pipetting, centrifuged to remove trypsin and re-suspended in Dulbecco’s Modified Eagle Medium (DMEM) supplemented with 20% (v/v) foetal-calf serum (DMEM20%FCS) and 0.1% gentamycin. Cells were seeded into 60 mm diameter Petri dishes, cultured in an atmosphere of 5% CO2/95% air at 37°C, and supplied with fresh medium after 24 hours and 4 days in vitro. For experiments aimed at measuring mRNA or protein expression in RPE, cells were trypsinized after one week in culture and transferred to 24-well or 6-well plates at a density of 1.5 × 10^5 cells/cm^2 in DMEM2%FCS. Norbixin or agonists were added to the medium 24 h after seeding, and antagonists were added to the medium 24 h later. A2E treatment was performed during 19 h before cellular sample preparation. All the drugs used in these experiments were prepared as stock solutions in DMSO.
(§2) After one week in culture, cells were trypsinized and transferred to a 96-well plate at a density of 6 × 10^4 cells/cm^2 in DMEM2%FCS. The next day, cells were transfected using the Cignal Reporter Assay Kits for PPAR, RXR, AP-1 and NF-κB, according to the manufacturer’s specifications. To measure the specific activation of PPAR isoforms, cells were also co-transfected with PPAR-α, PPAR-β/δ or PPAR-γ expression vectors. Transfection was performed with Lipofectamine and Plus Reagent in serum-free medium. 3 h after the transfection, the medium was replaced and treatments with the molecules to assay were performed. Luciferase activity was measured the next day using the Dual-Luciferase Reporter Assay System. The measurements were performed with a luminometer (Infinite M1000 from Tecan, Mannedorf, Switzerland). Firefly: Renilla activity ratios were calculated for each condition and ratios from transcription factor-responsive reporter transfections were divided by ratios from negative control transfections to obtain relative luciferase unit, as described by the manufacturer. At least 3 independent transfections were performed in triplicate for each condition.

IL-8 = IL-8 mRNA expression by quantitative RT-PCR in porcine RPE cells; assay type: cell-based
Procedure: as §1
Total RNA was extracted using the NucleoSpin® RNA kit according to manufacturer’s instructions. RT of 500 ng of RNA was performed using the SuperScript III Reverse Transcriptase following the manufacturer’s instructions. Five ng of cDNA were amplified using the SYBR GREEN real-time PCR method. PCR primers for target genes and housekeeping gene GAPDH were designed using Primer3Plus Bioinformatic software (Table 2). The RT-PCR using the StepOne Plus (Life Technologies, Carlsbad, CA, USA) consisted of incubation at 50°C for 5 min followed by 40 cycles of 95°C for 15 s and of 60°C for 1 min. The reaction was completed by a melt curve stage at 95°C for 15 s, 60°C for 1 min, 95°C for 15 s and a final step at 60°C for 15 s. The relative mRNA expression was calculated using the comparative threshold method (Ct-method) with GAPDH for normalization. All experimental conditions were processed in triplicate and each experiment was done at least 3 times.

AP-1 = AP-1 transactivation, luciferase reporter in porcine RPE cells; assay type: cell-based
Procedure: as §1
as §2, with “Transfection was performed with Lipofectamine and Plus Reagent in serum-free medium. 3 h after the transfection, the medium was replaced and treatments with the molecules to assay were performed.” left out, “The measurements were performed with a luminometer (Infinite M1000 from Tecan, Mannedorf, Switzerland).” left out, “At least 3 independent transfections were performed in triplicate for each condition.” left out

IL-18 = IL-18 mRNA expression by quantitative RT-PCR in porcine RPE cells; assay type: cell-based
Procedure: as §1, with “All the drugs used in these experiments were prepared as stock solutions in DMSO.” left out
Total RNA was extracted using the NucleoSpin® RNA kit according to manufacturer’s instructions. […] The relative mRNA expression was calculated using the comparative threshold method (Ct-method) with GAPDH for normalization. […]

PPAR-α = target: T1, PPAR-α (Homo sapiens, UniProt Q07869); test: Competition binding to PPAR-α against [3H]GW7647 (Eurofins Cerep); settings: competition with [3H]GW7647
T1 construct: Eurofins Cerep (contract laboratory that ran the assay)
T1 sequence (Q07869 1-468): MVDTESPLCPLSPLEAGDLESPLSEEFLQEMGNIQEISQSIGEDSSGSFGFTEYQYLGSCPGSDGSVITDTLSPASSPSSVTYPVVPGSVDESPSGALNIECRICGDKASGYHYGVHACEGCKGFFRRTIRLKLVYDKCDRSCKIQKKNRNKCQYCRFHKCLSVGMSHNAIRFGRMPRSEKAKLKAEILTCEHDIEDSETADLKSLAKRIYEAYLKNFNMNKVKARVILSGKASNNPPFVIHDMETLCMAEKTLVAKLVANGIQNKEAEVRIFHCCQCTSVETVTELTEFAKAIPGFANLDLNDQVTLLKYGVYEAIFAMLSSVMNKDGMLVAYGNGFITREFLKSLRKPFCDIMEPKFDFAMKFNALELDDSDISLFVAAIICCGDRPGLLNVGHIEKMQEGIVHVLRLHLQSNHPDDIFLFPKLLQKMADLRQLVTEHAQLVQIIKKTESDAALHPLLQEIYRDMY
Excerpt: The binding and activity of norbixin on PPARs remains controversial, thus, firstly, we performed competition experiments in vitro between norbixin and [^3H] GW7647, an agonist of PPAR-α, and [^3H] rosiglitazone, an agonist of PPAR-γ. […] Secondly, we tested whether norbixin could induce the transactivation of PPAR-α, -β/δ or -γ in the context of RPE cells in vitro by co-transfecting porcine RPE cells with a plasmid expressing each of the full-length PPAR isoforms and a plasmid expressing luciferase under the control of the PPAR response element. […] Then, we wanted to determine if norbixin could modulate the transactivation of PPAR isoforms induced by specific agonists.
Binding studies of A2E and norbixin to RXR-α and PPAR-α and γ were performed in vitro by an external laboratory (Eurofins Cerep, Celle L’Evescault, France) through competition experiments between A2E or norbixin and [^3H]9-cis-retinoic acid as the natural ligand of RXR-α, [^3H]GW7647 an agonist of PPAR-α and [^3H]Rosiglitazone an agonist of PPAR-γ.

ERK = ERK phosphorylation by western blot in primary porcine RPE cells; assay type: cell-based
Procedure: as §1, with “Norbixin or agonists were added to the medium 24 h after seeding, and antagonists were added to the medium 24 h later. A2E treatment was performed during 19 h before cellular sample preparation. All the drugs used in these experiments were prepared as stock solutions in DMSO.” left out
RPE samples were lysed in 20 mM Tris-HCl, 150 mM NaCl, 1 mM EDTA, 1% NP-40, pH 7.5 buffer containing a cocktail of protease and phosphatase inhibitors. […] The signal was developed using enhanced chemiluminescence reagents (ECL) prime detection kit, quantified by densitometry using Bio1D (Vilber Lourmat, Germany) and normalized by GAPDH levels. […]

[1] = A2E 20 μM, NBX 20 μM, HX531 5 μM

SMILES | inhibition of RXR transactivation induced by A2E (RXR; [1]) [%] | inhibition of RXR transactivation induced by HX630 (RXR; HX630 5 μM, NBX 20 μM) | transactivation of RXRs by the compound alone (RXR; HX630 5 μM, NBX 20 μM, vs DMSO control) | inhibition of IL-8 mRNA expression induced by A2E (IL-8; NBX 20 μM + A2E 30 μM) | inhibition of AP-1 transactivation induced by A2E (AP-1; [1]) [%] | effect on IL-18 expression induced by A2E (IL-18; NBX 20 μM + A2E 30 μM, PPAR antagonists) | IC50 (PPAR-α) [µM] | Kd (PPAR-α) [µM] | effect on ERK phosphorylation induced by A2E (ERK; NBX 20 μM + A2E 30 μM) | minimal concentration inducing transactivation of endogenous RXRs (RXR; dose-response, porcine RPE cells) [µM] | effect of the compound alone on IL-8 mRNA expression (IL-8; vs DMSO control) | effect of the compound alone on AP-1 transactivation (AP-1; A2E 20 μM vs DMSO control) | effect of the compound alone on IL-18 mRNA expression (IL-18; A2E 30 μM vs DMSO control) | effect of the compound alone on ERK phosphorylation (ERK; A2E 30 μM vs DMSO control)
CC(/C=C/C=C(C)/C=C/C(=O)O)=C\C=C\C=C(C)\C=C\C=C(C)\C=C\C(=O)O (stereo in doubt) [norbixin, 9’-cis-norbixin] | 49 | did not inhibit | did not induce the transactivation | approximately 23 fold | 82 | not inhibited | 16.5 | 15 | not significantly inhibited | – | – | – | – | –
CC(C=CC1=C(C)CCCC1(C)C)=CC=CC(C)=Cc1cc(C=CC=C(C)C=CC2=C(C)CCCC2(C)C)cc[n+]1CCO [A2E, N-retinylidene-N-retinylethanolamine] | – | – | – | – | – | – | 42.7 | 41 | – | 20 | induces the expression | induced transactivation of AP-1 | induced by A2E | induced the phosphorylation
